# Experiments:
# Laodelphax striatelius = assay: whole plant or invertebrate; details: in Oryza sativa, 192 h, read-out: insecticidal efficacy (corrected mortality rate), activity level
# From the text: Insecticidal test on Laodelphax striatelius
# The sulfonamide group-containing condensed heterocyclic compounds represented by the general formula (1) of the present invention or salts thereof were separately dispersed in water and diluted to 500 ppm. Rice plant seedlings (variety: Nihonbare) were dipped in the agrochenrical dispersions for 30 seconds. After air-dried, each seedling was put into a separate glass test tube and inoculated with ten 3rd-instar larvae of L, striatellus, and then the glass test tubes were capped with cotton plugs. At 8 days after the inoculation, the numbers of surviving larvae and dead larvae were counted to determine the survival rate, the corrected mortality rate was calculated according to the formula shown below, and the insecticidal efficacy was evaluated according to the criteria shown below.
# Plutella xylostella = assay: whole plant or invertebrate; details: in Brassica rapa, 144 h, read-out: insecticidal efficacy (corrected mortality rate), activity level
# Protocol: Insecticidal test on Plutella xylostella
# Adults of P. xylostella were released onto Chinese cabbage seedlings and allowed to lay eggs thereon. […] After air-dried, the seedlings were kept in a thermostatic chamber at 25° C. […] This test was conducted in triplicate using 10 adults of P. xviostella per plot.
# Corrected mortality rate (%)100×(Number of hatched larvae in a non-treatment plot-Number of hatched larvae in a treatment plot)/Number of hatched larvae in a non-treatment plot [Math. 3]
structure (smiles),measurement,setting,value
"CN(C)S(=O)(=O)c1cc(C2CC2)cnc1-c1nc2cc(SC(F)(F)F)ccc2o1 [Compound 4-6, 5-cyclopropyl-N,N-dimethyl-2-(5-trifluoromethylthiobenzoxazol-2-yl)pyridine-3-sulfonamide]",mortality at 500 ppm,Laodelphax striatelius,100%
same,mortality at 500 ppm,Plutella xylostella,100%

# — patent US20240199600A1, “CONDENSED HETEROCYCLIC COMPOUND HAVING A SULFONAMIDE GROUP OR SALT THEREOF, AGRICULTURAL OR HORTICULTURAL INSECTICIDE OR ANIMAL ECTOPARASITE OR ENDOPARASITE CONTROL AGENT COMPRISING THE COMPOUND OR THE SALT THEREOF, AND METHOD FOR USING THE COMPOUND OR THE SALT THEREOF, THE INSECTICIDE, OR THE …” (NIHON NOHYAKU CO., LTD., priority 2021, published 2024)
